The supplement of paper PMC10307832

Experiments:
Experiment in all cases: relative viability (nuclei count vs DMSO), 5 days (fraction); higher = more cells survive
[1] = compound: COCC[n+]1c2c(n(Cc3cnccn3)c1C)C(=O)c1ccccc1C2=O [YM155] + CC(=O)Nc1cccc(-n2c(=O)n(C3CC3)c(=O)c3c(Nc4ccc(I)cc4F)n(C)c(=O)c(C)c32)c1 [Trametinib] (partner 0.02 µM)
Procedure, shortened: (§1)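 Relative viability is defined as nuclei in treated wells over nuclei in vehicle wells. Duplicate plates were run and medians reported. Lung cancer cell lines in 1536-well plates were dosed by pin tool one day after seeding, with one drug or with a fixed anchor-drug dose plus five library-drug doses (not always all listed) in √10 steps, and nuclei were counted after 5 days.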

[2] = compound: COCC[n+]1c2c(n(Cc3cnccn3)c1C)C(=O)c1ccccc1C2=O [YM155] + CS(=O)(=O)N1CCN(Cc2cc3nc(-c4cccc5[nH]ncc45)nc(N4CCOCC4)c3s2)CC1 [Pictilisib] (partner 1 µM)
Procedure, shortened: as §1

[3] = compound: COCC[n+]1c2c(n(Cc3cnccn3)c1C)C(=O)c1ccccc1C2=O [YM155] + COc1cc2c(Oc3ccc(NC(=O)C4(C(=O)Nc5ccc(F)cc5)CC4)cc3F)ccnc2cc1OCCCN1CCOCC1 [Foretinib] (partner 0.25 µM)
Procedure, shortened: as §1

[4] = compound: CC(C)(C)c1cc(NC(=O)Nc2ccc(-c3cn4c(n3)sc3cc(OCCN5CCOCC5)ccc34)cc2)no1 [Quizartinib] + Cc1nc(Nc2ncc(C(=O)Nc3c(C)cccc3Cl)s2)cc(N2CCN(CCO)CC2)n1 [Dasatinib] (partner 0.075 µM)
Procedure, shortened: as §1

| Cell Line | relative viability ([1]; first compound 0.006325 µM) | relative viability ([1]; first compound 0.02 µM) | relative viability ([1]; first compound 0.06325 µM) | relative viability ([2]; first compound 0.002 µM) | relative viability ([2]; first compound 0.006325 µM) | relative viability ([2]; first compound 0.02 µM) | relative viability ([2]; first compound 0.06325 µM) | relative viability ([3]; first compound 0.002 µM) | relative viability ([3]; first compound 0.006325 µM) | relative viability ([3]; first compound 0.02 µM) | relative viability ([3]; first compound 0.06325 µM) | relative viability ([4]; first compound 0.003162 µM) | relative viability ([4]; first compound 0.01 µM) | relative viability ([4]; first compound 0.03162 µM) | relative viability ([4]; first compound 0.1 µM) | relative viability ([1]; first compound 0.002 µM) | relative viability ([4]; first compound 0.001 µM) |
| --- | --- | --- | --- | --- | --- | --- | --- | --- | --- | --- | --- | --- | --- | --- | --- | --- | --- |
| NCI-H23 | 0.361 | 0.498 | 0.225 | 0.518 | 0.459 | 0.484 | 0.222 | 0.643 | 0.718 | 0.959 | 0.785 | 0.733 | 0.696 | 0.712 | 0.853 | – | – |
| NCI-H322M | 0.5 | 0.48 | 0.536 | 0.49 | 0.553 | 0.559 | 0.556 | 1.02 | 1.08 | 0.931 | 0.981 | 0.255 | 0.27 | 0.265 | 0.266 | 0.55 | 0.208 |
| NCI-H358 | 0.153 | 0.167 | 0.14 | 0.254 | 0.349 | 0.332 | 0.249 | 0.653 | 0.699 | 0.736 | 0.37 | 0.188 | 0.164 | 0.167 | 0.144 | 0.142 | 0.136 |
| NCI-H441 | 0.393 | 0.461 | 0.268 | 0.539 | 0.527 | 0.47 | 0.381 | 0.859 | 0.636 | 0.992 | 0.43 | 0.571 | 0.765 | – | 0.771 | 0.383 | 0.617 |
| NCI-H460 | 0.147 | 0.174 | 0.14 | 0.355 | 0.351 | 0.413 | 0.451 | 0.957 | 1.04 | 1.01 | 0.919 | 0.551 | 0.413 | 0.307 | 0.422 | 0.081 | 0.481 |
| NCI-H520 | 0.599 | 0.75 | 0.741 | 0.236 | 0.298 | 0.255 | 0.293 | 0.662 | 0.671 | 0.68 | 0.831 | 0.192 | 0.244 | 0.198 | 0.171 | 0.735 | 0.169 |
| NCI-H596 | 0.784 | 0.744 | 0.859 | – | 0.387 | 0.378 | 0.431 | 0.79 | 0.833 | 0.946 | 0.829 | 0.546 | 0.578 | 0.592 | 0.495 | 0.783 | 0.658 |
| NCI-H647 | 0.456 | 0.463 | 0.472 | 0.352 | 0.345 | 0.399 | 0.213 | 1.21 | 1.11 | 0.981 | 0.474 | 0.181 | 0.178 | 0.199 | 0.185 | 0.342 | 0.173 |
| NCI-H650 | 0.875 | 0.967 | 1.04 | 0.88 | 0.843 | 0.953 | 0.683 | 0.985 | 0.932 | 0.988 | 1.06 | 0.524 | 0.391 | 0.415 | 0.506 | 1.05 | 0.484 |
| NCI-H661 | 0.558 | 0.598 | 0.525 | 0.385 | 0.422 | 0.492 | 0.453 | 1.03 | 1.02 | 1.03 | 0.494 | 0.896 | 1.09 | 0.837 | 0.887 | 0.496 | 0.756 |
| NCI-H727 | 0.396 | 0.391 | 0.411 | 0.397 | 0.533 | 0.446 | 0.375 | 0.951 | 0.902 | 1.14 | 1.03 | 0.377 | 0.411 | 0.322 | 0.318 | 0.412 | – |
| NCI-H838 | 0.505 | 0.508 | 0.372 | 0.386 | 0.521 | 0.536 | 0.299 | 1.04 | 1.02 | 1.09 | 0.479 | 0.329 | 0.276 | 0.296 | 0.257 | 0.461 | 0.272 |
| NCI-H1355 | 0.454 | 0.473 | 0.406 | 0.403 | 0.484 | 0.462 | 0.514 | 0.932 | 1.02 | 1.06 | 0.964 | 0.762 | 0.684 | 0.747 | 0.66 | 0.509 | 0.719 |
| NCI-H1395 | 1.02 | 1.08 | 1.2 | 0.587 | 0.546 | 0.622 | 0.673 | 0.943 | 0.91 | 0.984 | 1.01 | 0.418 | 0.388 | 0.421 | 0.413 | 1.04 | 0.384 |
| NCI-H1437 | 0.564 | 0.534 | 0.469 | 0.417 | 0.404 | 0.468 | 0.507 | 1.21 | 1.24 | 1.26 | 0.984 | 0.467 | 0.384 | 0.27 | 0.363 | 0.42 | 0.375 |
| NCI-H1650 | 0.581 | 0.458 | 0.355 | 0.498 | 0.573 | 0.532 | 0.276 | 1.07 | 1.11 | 0.932 | 0.57 | 0.328 | 0.298 | – | 0.245 | 0.478 | 0.283 |
| NCI-H1651 | 0.755 | 0.867 | 0.962 | 0.542 | 0.589 | 0.556 | 0.473 | 0.864 | 0.785 | 0.84 | 0.603 | 0.429 | 0.392 | 0.296 | 0.441 | 0.863 | 0.306 |
| NCI-H1666 | 0.896 | 0.874 | 0.903 | 0.455 | – | 0.404 | 0.484 | 0.917 | 0.996 | 0.988 | 0.942 | 0.782 | 0.737 | 0.582 | 0.757 | 0.865 | 0.836 |
| NCI-H1734 | 0.658 | 0.724 | 0.741 | 0.414 | 0.454 | 0.491 | 0.533 | 0.853 | 0.723 | 0.914 | 0.989 | 0.421 | 0.431 | 0.481 | 0.453 | 0.672 | 0.408 |
